Holding throughout (assay): relative viability (nuclei count vs DMSO), 5 days (fraction); higher = more cells survive
Compound in one assay: C1CN(CCN1)C2=CC=C(C=C2)C3=CN4C(=C(C=N4)C5=CC=NC6=CC=CC=C56)N=C3 [DM3189]
The method in brief: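 A plate was accepted only when its control CV was below 25% and the cells had doubled at least once. Viability is defined from nuclear counts as treated wells divided by vehicle wells, with the median taken across plates. That median covers lung cancer cell lines grown in 1536-well plates, dosed by pinning at five √10-spaced library-drug concentrations, and counted in MetaXpress from 4× Hoechst images after 5 days.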

Compound in the assay “DM3189 + Lapatinib”: C1CN(CCN1)C2=CC=C(C=C2)C3=CN4C(=C(C=N4)C5=CC=NC6=CC=CC=C56)N=C3 [DM3189] + CS(=O)(=O)CCNCc1ccc(-c2ccc3ncnc(Nc4ccc(OCc5cccc(F)c5)c(Cl)c4)c3c2)o1 [Lapatinib] (partner 2 µM)
Summed up:
(§1)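 Lung cancer cell lines, seeded in 1536-well plates, were treated the following day by pin tool with a single drug or with five library-drug doses (not always all listed) in √10 steps on top of a fixed anchor-drug dose. Cells were fixed and nuclei stained in one step after 5 days, and nuclei were counted. Relative viability is the nuclei count for treated wells divided by that for vehicle wells, reported as medians of duplicate plates.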

Compound in the assay “DM3189 + AZD7762”: C1CN(CCN1)C2=CC=C(C=C2)C3=CN4C(=C(C=N4)C5=CC=NC6=CC=CC=C56)N=C3 [DM3189] + NC(=O)Nc1cc(-c2cccc(F)c2)sc1C(=O)N[C@H]1CCCNC1 [AZD7762] (partner 0.2 µM)
The method in brief:
as §1

Compound in the assay “DM3189 + Vorinostat”: C1CN(CCN1)C2=CC=C(C=C2)C3=CN4C(=C(C=N4)C5=CC=NC6=CC=CC=C56)N=C3 [DM3189] + O=C(CCCCCCC(=O)Nc1ccccc1)NO [Vorinostat] (partner 1 µM)
The method in brief: as §1

Compound in the assay “DM3189 + Trametinib”: C1CN(CCN1)C2=CC=C(C=C2)C3=CN4C(=C(C=N4)C5=CC=NC6=CC=CC=C56)N=C3 [DM3189] + CC(=O)Nc1cccc(-n2c(=O)n(C3CC3)c(=O)c3c(Nc4ccc(I)cc4F)n(C)c(=O)c(C)c32)c1 [Trametinib] (partner 0.02 µM)
Summed up:
as §1

Consider PC-14, for which the relative viability came out at 1.14 with DM3189 (0.08 µM); 0.954 with DM3189 (0.253 µM); 0.871 with DM3189 (0.8 µM); 0.932 with DM3189 (2.53 µM); 0.319 with DM3189 + Lapatinib (first compound 0.08 µM); 0.284 with DM3189 + Lapatinib (first compound 0.253 µM). The relative viability was 0.34 in the assay with DM3189 + Lapatinib (first compound 0.8 µM); 0.377 in the assay with DM3189 + Lapatinib (first compound 2.53 µM); 0.569 with DM3189 + AZD7762 (first compound 0.08 µM); 0.249 in the assay with DM3189 + AZD7762 (first compound 0.253 µM); 0.263 with DM3189 + AZD7762 (first compound 0.8 µM); 0.26 with DM3189 + AZD7762 (first compound 2.53 µM). The relative viability was 0.733 with DM3189 + Vorinostat (first compound 0.08 µM); 0.7 in the assay with DM3189 + Vorinostat (first compound 0.253 µM); 0.674 in the assay with DM3189 + Vorinostat (first compound 0.8 µM); 0.533 in the assay with DM3189 + Vorinostat (first compound 2.53 µM); 0.732 with DM3189 + Trametinib (first compound 0.08 µM); 0.877 in the assay with DM3189 + Trametinib (first compound 0.253 µM). Moreover, the values for the relative viability in the assay with DM3189 + Trametinib (first compound 0.8 µM) and with DM3189 + Trametinib (first compound 2.53 µM) were 0.635 and 0.849, respectively.
As for NCI-H322M, the relative viability with DM3189 (0.08 µM) stood at 1.06; with DM3189 (0.253 µM) it was 0.907; in the assay with DM3189 (0.8 µM), 0.874; with DM3189 (2.53 µM), 0.707; in the assay with DM3189 + Lapatinib (first compound 0.08 µM), 0.651; with DM3189 + Lapatinib (first compound 0.253 µM), 0.633. Besides, the relative viability is 0.508 with DM3189 + Lapatinib (first compound 0.8 µM); 0.603 with DM3189 + Lapatinib (first compound 2.53 µM); 0.662 with DM3189 + AZD7762 (first compound 0.08 µM); 0.644 with DM3189 + AZD7762 (first compound 0.253 µM); 0.662 with DM3189 + AZD7762 (first compound 0.8 µM); 0.519 with DM3189 + AZD7762 (first compound 2.53 µM). Besides, the relative viability in the assay with DM3189 + Vorinostat (first compound 0.08 µM) turned out to be 0.97; with DM3189 + Vorinostat (first compound 0.253 µM), 0.874; with DM3189 + Vorinostat (first compound 0.8 µM) it was 0.783; with DM3189 + Vorinostat (first compound 2.53 µM), 0.791; with DM3189 + Trametinib (first compound 0.08 µM), 0.532; in the assay with DM3189 + Trametinib (first compound 0.253 µM), 0.518. For the same cell line, the values for the relative viability with DM3189 + Trametinib (first compound 0.8 µM) and in the assay with DM3189 + Trametinib (first compound 2.53 µM) were 0.517 and 0.511, respectively.
SK-MES-1: the relative viability came to 1.04 with DM3189 (0.08 µM); 0.981 with DM3189 (0.253 µM); 0.853 in the assay with DM3189 (0.8 µM); 0.94 with DM3189 (2.53 µM); 0.458 with DM3189 + Lapatinib (first compound 0.08 µM); 0.416 with DM3189 + Lapatinib (first compound 0.253 µM). Further, the relative viability with DM3189 + Lapatinib (first compound 0.8 µM) was 0.456; with DM3189 + Lapatinib (first compound 2.53 µM), 0.402; with DM3189 + Vorinostat (first compound 0.08 µM) it was 1.34; in the assay with DM3189 + Vorinostat (first compound 0.253 µM) it was 1.01; with DM3189 + Vorinostat (first compound 0.8 µM), 0.787; in the assay with DM3189 + Vorinostat (first compound 2.53 µM) it was 0.875. Besides, the relative viability with DM3189 + Trametinib (first compound 0.08 µM) stood at 0.54; with DM3189 + Trametinib (first compound 0.253 µM), 0.485; with DM3189 + Trametinib (first compound 0.8 µM) it was 0.481; with DM3189 + Trametinib (first compound 2.53 µM), 0.548.
In the case of NCI-H1944, the relative viability in the assay with DM3189 (0.08 µM) was determined as 1.19; with DM3189 (0.253 µM), 0.991; with DM3189 (2.53 µM) it was 1.02; with DM3189 + Lapatinib (first compound 0.08 µM), 0.884; with DM3189 + Lapatinib (first compound 0.253 µM) it was 0.765; with DM3189 + Lapatinib (first compound 2.53 µM) it was 0.803. Moreover, the relative viability with DM3189 + AZD7762 (first compound 0.08 µM) stood at 0.547; with DM3189 + AZD7762 (first compound 0.253 µM), 0.55; with DM3189 + AZD7762 (first compound 0.8 µM) it was 0.576; with DM3189 + AZD7762 (first compound 2.53 µM), 0.446; with DM3189 + Vorinostat (first compound 0.08 µM) it was 0.592; with DM3189 + Vorinostat (first compound 0.253 µM), 0.567. The relative viability with DM3189 + Vorinostat (first compound 0.8 µM) amounted to 0.467; with DM3189 + Vorinostat (first compound 2.53 µM) it was 0.565; with DM3189 + Trametinib (first compound 0.08 µM), 0.463; in the assay with DM3189 + Trametinib (first compound 0.253 µM), 0.422; with DM3189 + Trametinib (first compound 0.8 µM), 0.42; with DM3189 + Trametinib (first compound 2.53 µM), 0.413.
Consider LK-2, for which the relative viability with DM3189 (0.08 µM) is 0.687; with DM3189 (0.253 µM), 0.657; with DM3189 (0.8 µM) it was 0.633; with DM3189 (2.53 µM), 0.537; with DM3189 + Lapatinib (first compound 0.08 µM), 0.613; with DM3189 + Lapatinib (first compound 0.253 µM) it was 0.625. Further, the relative viability was 0.458 with DM3189 + Lapatinib (first compound 0.8 µM); 0.43 with DM3189 + Lapatinib (first compound 2.53 µM); 0.252 with DM3189 + AZD7762 (first compound 0.08 µM); 0.153 with DM3189 + AZD7762 (first compound 0.253 µM); 0.225 with DM3189 + AZD7762 (first compound 0.8 µM); 0.219 with DM3189 + AZD7762 (first compound 2.53 µM). Moreover, the relative viability with DM3189 + Vorinostat (first compound 0.08 µM) came out at 0.292; with DM3189 + Vorinostat (first compound 0.253 µM) it was 0.273; with DM3189 + Vorinostat (first compound 0.8 µM) it was 0.213; in the assay with DM3189 + Vorinostat (first compound 2.53 µM), 0.227; in the assay with DM3189 + Trametinib (first compound 0.08 µM), 0.586; with DM3189 + Trametinib (first compound 0.253 µM) it was 0.511. Also, the relative viability was 0.638 with DM3189 + Trametinib (first compound 0.8 µM) and 0.497 with DM3189 + Trametinib (first compound 2.53 µM).
On to RERF-LC-KJ, for which the relative viability was determined as 1.16 with DM3189 (0.08 µM); 1.04 with DM3189 (0.253 µM); 1.04 with DM3189 (0.8 µM); 1.05 with DM3189 (2.53 µM); 0.965 with DM3189 + Lapatinib (first compound 0.08 µM); 0.954 with DM3189 + Lapatinib (first compound 0.253 µM). Further, the relative viability with DM3189 + Lapatinib (first compound 0.8 µM) was found to be 0.843; with DM3189 + Lapatinib (first compound 2.53 µM) it was 0.854; with DM3189 + AZD7762 (first compound 0.08 µM), 1.51; with DM3189 + AZD7762 (first compound 0.253 µM), 1.11; with DM3189 + AZD7762 (first compound 0.8 µM), 1; with DM3189 + AZD7762 (first compound 2.53 µM), 0.964. The relative viability with DM3189 + Vorinostat (first compound 0.08 µM) was found to be 0.858; in the assay with DM3189 + Vorinostat (first compound 0.253 µM) it was 0.729; in the assay with DM3189 + Vorinostat (first compound 0.8 µM), 0.661; with DM3189 + Vorinostat (first compound 2.53 µM), 0.715; with DM3189 + Trametinib (first compound 0.08 µM), 1.03; with DM3189 + Trametinib (first compound 0.253 µM), 0.95. Besides, the relative viability with DM3189 + Trametinib (first compound 0.8 µM) was found to be 0.927; in the assay with DM3189 + Trametinib (first compound 2.53 µM), 0.986.
For the cell line COR-L23, the relative viability in the assay with DM3189 (0.08 µM) amounted to 1.06; with DM3189 (0.253 µM) it was 0.95; with DM3189 (0.8 µM), 0.758; in the assay with DM3189 (2.53 µM) it was 0.95; with DM3189 + Lapatinib (first compound 0.08 µM) it was 1.08; in the assay with DM3189 + Lapatinib (first compound 0.253 µM), 0.962. In addition, the relative viability with DM3189 + Lapatinib (first compound 0.8 µM) turned out to be 0.514; with DM3189 + Lapatinib (first compound 2.53 µM), 0.743; with DM3189 + Vorinostat (first compound 0.08 µM), 0.454; with DM3189 + Vorinostat (first compound 0.253 µM), 0.537; in the assay with DM3189 + Vorinostat (first compound 0.8 µM) it was 0.387; with DM3189 + Vorinostat (first compound 2.53 µM), 0.37. Moreover, the relative viability amounted to 0.707 with DM3189 + Trametinib (first compound 0.08 µM), 0.507 in the assay with DM3189 + Trametinib (first compound 0.253 µM), 0.529 in the assay with DM3189 + Trametinib (first compound 0.8 µM) and 0.549 in the assay with DM3189 + Trametinib (first compound 2.53 µM).

Values taken from the supplement of paper PMC10307832.
